# Results as given in ChEMBL document CHEMBL1221262, “Synthesis and antituberculosis activity of new fatty acid amides” (2010).
# System: Mycobacterium tuberculosis
# Experiment: Antitubercular activity against Mycobacterium tuberculosis H37Rv after 7 days by resazurin microtiter assay
# Format: functional
# Conditions: 168 h
row,SMILES,MIC
1,CCCCCC[C@@H](O)C/C=C\CCCCCCCC(=O)NCc1ccccc1,25 µg/mL
2,CCCCCC[C@@H](O)C/C=C\CCCCCCCC(=O)N1CCCC1,12.5 µg/mL
3,CCCCCCCCCCCCCCCCCC(=O)N[C@H](C)c1ccccc1,> 100 µg/mL
4,CCCCCCCC/C=C\CCCCCCCC(=O)NCCO [OLEOYLETHANOLAMIDE],25 µg/mL
5,CCCCCCCCCCCCCCCCCC(=O)N[C@@H](C)c1ccccc1,> 100 µg/mL
6,CCCCCCCC/C=C\CCCCCCCC(=O)N1CCOCC1,25 µg/mL
7,CCCCCCCC/C=C\CCCCCCCC(=O)N1CCCCC1,50 µg/mL
8,CCCCC/C=C\C/C=C\CCCCCCCC(=O)N[C@@H](C)c1ccccc1,50 µg/mL
9,CCCCCCCCCCCCCCCC(=O)NCCO [PALMIDROL],> 100 µg/mL
10,CCCCCC[C@@H](O)C/C=C\CCCCCCCC(=O)N1CCOCC1,50 µg/mL
11,CCCCCCCCCCCCCCCC(=O)N1CCCCC1,25 µg/mL
12,CCCCCC[C@@H](O)C/C=C\CCCCCCCC(=O)N[C@@H](C)c1ccccc1,100 µg/mL
13,CCCCCCCCCCCCCCCC(=O)N1CCCC1,25 µg/mL
14,CCCCCC[C@@H](O)C/C=C\CCCCCCCC(=O)N[C@H](C)c1ccccc1,100 µg/mL
15,CCCCC/C=C\C/C=C\CCCCCCCC(=O)N[C@H](C)c1ccccc1,100 µg/mL
16,CCCCC/C=C\C/C=C\CCCCCCCC(=O)N1CCCC1,12.5 µg/mL
17,CCCCCCCCCCCCCCCC(=O)N[C@H](C)c1ccccc1,> 100 µg/mL
18,CCCCCCCC/C=C\CCCCCCCC(=O)N1CCCC1,25 µg/mL
19,CCCCCCCCCCCCCCCC(=O)N[C@@H](C)c1ccccc1,> 100 µg/mL
